Molecular target: T1, SGAP (Streptomyces griseus, UniProt P80561)
T1 construct: gene SGR_5809; commercial preparation (Sigma)
Assay: 4-nitroanilide release at […] nm, commercial enzyme
Format: biochemical
Conditions: 1 mM substrate, MMP, 37 °C

T1 sequence (P80561 46-329): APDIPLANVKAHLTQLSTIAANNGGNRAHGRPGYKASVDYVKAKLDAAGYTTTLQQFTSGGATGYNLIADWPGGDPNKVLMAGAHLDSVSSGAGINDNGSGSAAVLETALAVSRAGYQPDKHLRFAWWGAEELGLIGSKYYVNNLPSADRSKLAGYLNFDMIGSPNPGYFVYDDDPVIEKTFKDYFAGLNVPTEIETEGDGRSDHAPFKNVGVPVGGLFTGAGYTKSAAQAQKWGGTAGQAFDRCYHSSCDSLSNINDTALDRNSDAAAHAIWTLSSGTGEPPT

| Compound | 4-nitroanilide release at 405 nm, commercial enzyme |
| --- | --- |
| CC(C)C[C@H](N)C(=O)Nc1ccc([N+](=O)[O-])cc1 [leucine-p-nitroanilide] | SGAP clearly released maximal levels of 4-nitroanilide from leucine-p-nitroanilide and methionine-p-nitroanilide |
| CSCC[C@H](N)C(=O)Nc1ccc([N+](=O)[O-])cc1 [methionine-p-nitroanilide] | SGAP clearly released maximal levels of 4-nitroanilide from leucine-p-nitroanilide and methionine-p-nitroanilide |
